Patent US10414811B2, “Protease-resistant lipidated GLP-1 analogs” (MEDIMMUNE LIMITED, priority 2015, dated 2019)
Where two headings read alike, the source gives them in different places. Numbered stars: 1 amine (or outer) side, 2 acyl side, 3 side chain; on linkers, the order of the positions; unused ones are H or OH. Square brackets hold non-standard residues; d marks the D form. Side chains are listed from the residue outwards. Peptide text beside a SMILES is read from it. * marks the point of attachment. γGlu = O=C(O)[C@H](CCC(=O)[*:2])N[*:1]; Palmitoyl = CCCCCCCCCCCCCCCC(=O)*; αMeF = C[C@](N)(Cc1ccccc1)C(=O)O; αMeK = C[C@](N)(CCCCN)C(=O)O; αMeS = C[C@](N)(CO)C(=O)O; Aib = CC(C)(N)C(=O)O

Assays:
Format in all cases: cell-based
[1] = biological target: T1, human GLP-1 receptor (GLP-1R) (Homo sapiens, UniProt P43220); test: cAMP assay, human GLP-1R cells
T1 construct: expressed in transfected cells
T1 sequence (P43220 24-463): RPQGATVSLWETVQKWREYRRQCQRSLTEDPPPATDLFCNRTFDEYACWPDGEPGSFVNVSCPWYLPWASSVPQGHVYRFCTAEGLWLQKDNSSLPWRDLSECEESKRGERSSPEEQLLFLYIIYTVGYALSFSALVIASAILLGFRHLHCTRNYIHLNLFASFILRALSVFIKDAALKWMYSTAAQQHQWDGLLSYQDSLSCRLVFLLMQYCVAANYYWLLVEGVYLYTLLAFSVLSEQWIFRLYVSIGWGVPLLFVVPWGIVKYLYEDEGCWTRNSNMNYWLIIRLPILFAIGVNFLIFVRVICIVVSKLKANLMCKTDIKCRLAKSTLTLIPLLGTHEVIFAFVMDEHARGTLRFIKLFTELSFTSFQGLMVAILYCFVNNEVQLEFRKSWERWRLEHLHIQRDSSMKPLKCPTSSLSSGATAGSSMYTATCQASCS
Method in brief: (§1)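 Peptide-stimulated cAMP measured by two-step HTRF after a 30 min room-temperature incubation with receptor-expressing cells (hGLP-1R, hGIPR at 1×10^5 cells/ml; hGCGR at 2×10^5 cells/ml). Duplicate dilutions; EC50 from 4-parameter logistic fit of % Delta F.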

[2] = biological target: T2, human glucagon receptor (GCGR) (Homo sapiens, UniProt P47871); test: cAMP assay, human GCGR cells; conditions: cAMP assay
T2 construct: expressed in transfected cells
T2 sequence (P47871 26-477): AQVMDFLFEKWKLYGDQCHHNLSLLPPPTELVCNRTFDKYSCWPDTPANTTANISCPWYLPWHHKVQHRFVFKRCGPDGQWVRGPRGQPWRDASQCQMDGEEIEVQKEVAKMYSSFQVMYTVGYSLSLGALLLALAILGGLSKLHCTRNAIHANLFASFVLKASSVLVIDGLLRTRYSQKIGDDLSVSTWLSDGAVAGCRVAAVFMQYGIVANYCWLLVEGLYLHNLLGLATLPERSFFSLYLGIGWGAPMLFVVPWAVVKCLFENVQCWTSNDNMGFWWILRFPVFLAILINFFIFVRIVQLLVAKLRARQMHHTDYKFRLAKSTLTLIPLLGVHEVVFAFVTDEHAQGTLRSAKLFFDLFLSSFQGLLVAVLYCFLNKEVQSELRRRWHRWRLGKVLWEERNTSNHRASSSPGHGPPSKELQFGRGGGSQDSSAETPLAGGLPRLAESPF
Method in brief: as §1

[3] = biological target: T3, human glucose-dependent insulinotropic peptide receptor (GIPR) (Homo sapiens, UniProt P48546); test: cAMP assay, human GIPR cells; conditions: cAMP assay
T3 construct: expressed in transfected cells
T3 sequence (P48546 22-466): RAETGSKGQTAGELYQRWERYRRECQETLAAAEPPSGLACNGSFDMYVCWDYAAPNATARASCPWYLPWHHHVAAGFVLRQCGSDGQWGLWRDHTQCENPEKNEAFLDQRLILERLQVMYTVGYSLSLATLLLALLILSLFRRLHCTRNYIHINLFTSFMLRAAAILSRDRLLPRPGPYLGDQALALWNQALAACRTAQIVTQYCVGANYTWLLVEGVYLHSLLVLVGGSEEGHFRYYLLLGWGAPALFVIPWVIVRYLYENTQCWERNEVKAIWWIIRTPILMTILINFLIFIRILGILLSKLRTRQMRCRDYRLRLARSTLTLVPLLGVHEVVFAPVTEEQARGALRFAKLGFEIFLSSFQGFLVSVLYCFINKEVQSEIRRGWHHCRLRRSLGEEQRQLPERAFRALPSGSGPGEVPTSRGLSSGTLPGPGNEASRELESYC
Method in brief: as §1

GLP-1R (INS1e assay) = biological target: T4, GLP-1R (INS1e assay) (Rattus norvegicus, UniProt P32301); test: INS1e assay, cAMP activity at GLP-1R; conditions: mono-lipidated peptides
T4 construct: endogenous in cells; host or cells: INS-1E cells
T4 sequence (P32301 22-463): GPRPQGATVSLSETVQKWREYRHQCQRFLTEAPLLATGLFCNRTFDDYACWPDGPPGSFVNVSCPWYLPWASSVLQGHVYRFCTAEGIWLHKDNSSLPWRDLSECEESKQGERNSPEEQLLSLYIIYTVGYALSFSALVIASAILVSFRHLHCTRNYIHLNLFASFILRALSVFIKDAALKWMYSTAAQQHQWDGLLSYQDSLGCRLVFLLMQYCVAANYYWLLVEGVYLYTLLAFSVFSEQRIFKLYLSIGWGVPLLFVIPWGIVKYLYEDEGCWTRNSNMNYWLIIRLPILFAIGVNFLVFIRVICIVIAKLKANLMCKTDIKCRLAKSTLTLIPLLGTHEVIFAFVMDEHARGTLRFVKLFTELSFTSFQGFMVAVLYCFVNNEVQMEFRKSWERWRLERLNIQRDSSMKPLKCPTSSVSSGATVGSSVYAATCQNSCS
Method in brief: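 It pairs cAMP-d2 acceptor with anti-cAMP cryptate donor, both prepared 1/20 in conjugate/lysis buffer, applied as a two-step protocol.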

[4] = cAMP assay, first determination (n1), read-out: Primary assay EC50 GLP-1R n1
[5] = cAMP assay, second determination (n2), read-out: Primary assay EC50 GLP-1R n2
[6] = mean of n1 and n2, read-out: Mean pM GLP-1R
[7] = first determination (n1), read-out: Primary assay EC50 Gluc-R (n1)
[8] = second determination (n2), read-out: Primary assay EC50 Gluc-R (n2)
[9] = first determination (n1), read-out: Primary assay EC50 GIP-R (n1)
[10] = second determination (n2), read-out: Primary assay EC50 GIP-R (n2)
[11] = mean of n1 and n2, read-out: INS1e assay EC50 Mean pM GLP-1R
[12] = replicate n1, read-out: INS1e assay EC50 GLP-1R n1
[13] = replicate n2, read-out: INS1e assay EC50 GLP-1R n2

Which EC50 [1, 4] does the source give for `CCCCCCCCCCCCCCCC(=O)N[C@@H](CCC(=O)NCCCC[C@H](NC(=O)[C@H](CO)NC(=O)[C@@H](NC(=O)[C@](C)(Cc1ccccc1)NC(=O)[C@H](CO)NC(=O)CNC(=O)[C@H](CCC(=O)O)NC(=O)C(C)(C)NC(=O)[C@@H](N)Cc1c[nH]cn1)[C@@H](C)O)C(=O)N[C@H](C(=O)N[C@@](C)(CO)C(=O)N[C@@H](CO)C(=O)N[C@@](C)(Cc1ccccc1)C(=O)N[C@@H](CC(C)C)C(=O)N[C@@H](CCC(=O)O)C(=O)NCC(=O)N[C@@H](CCC(=O)O)C(=O)N[C@@H](C)C(=O)N[C@@H](C)C(=O)N[C@@](C)(CCCCN)C(=O)N[C@@H](CCC(=O)O)C(=O)N[C@@](C)(Cc1ccccc1)C(=O)N[C@H](C(=O)N[C@@H](C)C(=O)N[C@@](C)(Cc1ccccc1)C(=O)N[C@H](C(=O)N[C@H](C(=O)N[C@@](C)(CCCCN)C(=O)NCC(=O)NCC(N)=O)C(C)C)C(C)C)[C@@H](C)CC)C(C)C)C(=O)O` [compound 91] (H-H[Aib]EGS[αMeF]TSK([γGlu-Palmitoyl])V[αMeS]S[αMeF]LEGEAA[αMeK]E[αMeF]IA[αMeF]VV[αMeK]GG-NH2) here?
Its EC50 is 21 pM.

And the EC50 [1, 5]?
Its EC50 is 27 pM.

And the EC50 [1, 6]?
Its EC50 is 24 pM.

And the EC50 [2, 7]?
The EC50 was at least 28 nM.

What about the EC50 [2, 8] of the same molecule?
Its EC50 is at least 28 nM.

And the EC50 [3, 9]?
Its EC50 is at least 28 nM.

And the EC50 [3, 10]?
The EC50 was at least 28 nM.

What about the EC50 (GLP-1R (INS1e assay); [11]) of the same molecule?
The EC50 was 2720 pM.

And the EC50 (GLP-1R (INS1e assay); [12])?
The EC50 was 1930 pM.

What about the EC50 (GLP-1R (INS1e assay); [13]) of the same molecule?
Its EC50 is 3500 pM.

Which results are given for `CC[C@H](C)[C@H](NC(=O)[C@H](Cc1ccccc1)NC(=O)[C@H](CCC(=O)O)NC(=O)[C@H](CCCCN)NC(=O)[C@H](C)NC(=O)[C@H](C)NC(=O)[C@H](CCC(N)=O)NC(=O)CNC(=O)[C@H](CCC(=O)O)NC(=O)[C@H](CC(C)C)NC(=O)[C@H](Cc1ccc(O)cc1)NC(=O)[C@H](CO)NC(=O)[C@H](CO)NC(=O)[C@@H](NC(=O)[C@H](CC(=O)O)NC(=O)[C@H](CO)NC(=O)[C@@H](NC(=O)[C@H](Cc1ccccc1)NC(=O)[C@@H](NC(=O)CNC(=O)[C@H](CCC(=O)O)NC(=O)C(C)(C)NC(=O)[C@@H](N)Cc1c[nH]cn1)[C@@H](C)O)[C@@H](C)O)C(C)C)C(=O)N[C@@H](C)C(=O)N[C@@H](Cc1c[nH]c2ccccc12)C(=O)N[C@@H](CC(C)C)C(=O)N[C@H](C(=O)N[C@@H](CCCCN)C(=O)NCC(=O)N[C@@H](CCCNC(=N)N)C(=O)N[C@@H](CCCCNC(=O)COCCOCCNC(=O)COCCOCCNC(=O)CC[C@H](NC(=O)CCCCCCCCCCCCCCCCC(=O)O)C(=O)O)C(N)=O)C(C)C` [compound 6]?
EC50 [1, 4]: 4.8 pM; EC50 [2, 7]: ≥ 22 nM; EC50 [2, 8]: ≥ 22 nM; EC50 [3, 9]: ≥ 22 nM; EC50 [3, 10]: ≥ 22 nM; EC50 (GLP-1R (INS1e assay); [11]): 122 pM; EC50 (GLP-1R (INS1e assay); [12]): 104 pM; EC50 (GLP-1R (INS1e assay); [13]): 139 pM

What does the source list for `CCCCCCCCCCCCCCCC(=O)N[C@@H](CCC(=O)NCCCC[C@H](NC(=O)[C@H](CO)NC(=O)[C@](C)(CO)NC(=O)[C@@H](NC(=O)[C@H](CC(=O)O)NC(=O)[C@H](CO)NC(=O)[C@@H](NC(=O)[C@](C)(Cc1ccccc1)NC(=O)[C@H](CO)NC(=O)CNC(=O)[C@H](CCC(=O)O)NC(=O)C(C)(C)NC(=O)[C@@H](N)Cc1c[nH]cn1)[C@@H](C)O)C(C)C)C(=O)N[C@@H](CC(C)C)C(=O)N[C@@H](CCC(=O)O)C(=O)NCC(=O)N[C@@H](CCC(=O)O)C(=O)N[C@@H](C)C(=O)N[C@@H](C)C(=O)N[C@@](C)(CCCCN)C(=O)N[C@@H](CCC(=O)O)C(=O)N[C@@](C)(Cc1ccccc1)C(=O)N[C@H](C(=O)N[C@@H](C)C(=O)N[C@@](C)(Cc1ccccc1)C(=O)N[C@H](C(=O)N[C@H](C(=O)N[C@@](C)(CCCCN)C(=O)NCC(=O)NCC(N)=O)C(C)C)C(C)C)[C@@H](C)CC)C(=O)O` [compound 87]?
EC50 [1, 4]: 1.6 pM; EC50 [1, 5]: 1.6 pM; EC50 [1, 6]: 1.6 pM; EC50 [2, 7]: ≥ 28 nM; EC50 [2, 8]: ≥ 28 nM; EC50 [3, 9]: ≥ 28 nM; EC50 [3, 10]: ≥ 28 nM; EC50 (GLP-1R (INS1e assay); [11]): 53 pM; EC50 (GLP-1R (INS1e assay); [12]): 43.6 pM; EC50 (GLP-1R (INS1e assay); [13]): 62.2 pM
